In PMC6744613 (ACS chemical neuroscience, 2018):
Positions count from the first letter of the chain named. Like-named read-outs stand apart in the source and are kept apart here.

How the values were obtained:
COX-1 [1] = biological target: T1, COX-1 (Macaca mulatta, UniProt F6S984); assay: COX-1 whole-blood enzymatic immunoassay; format: cell-based; conditions: read-out: IC50 COX-1 Monkey, mean ± SD (n = 3)
T1 sequence (F6S984 25-599): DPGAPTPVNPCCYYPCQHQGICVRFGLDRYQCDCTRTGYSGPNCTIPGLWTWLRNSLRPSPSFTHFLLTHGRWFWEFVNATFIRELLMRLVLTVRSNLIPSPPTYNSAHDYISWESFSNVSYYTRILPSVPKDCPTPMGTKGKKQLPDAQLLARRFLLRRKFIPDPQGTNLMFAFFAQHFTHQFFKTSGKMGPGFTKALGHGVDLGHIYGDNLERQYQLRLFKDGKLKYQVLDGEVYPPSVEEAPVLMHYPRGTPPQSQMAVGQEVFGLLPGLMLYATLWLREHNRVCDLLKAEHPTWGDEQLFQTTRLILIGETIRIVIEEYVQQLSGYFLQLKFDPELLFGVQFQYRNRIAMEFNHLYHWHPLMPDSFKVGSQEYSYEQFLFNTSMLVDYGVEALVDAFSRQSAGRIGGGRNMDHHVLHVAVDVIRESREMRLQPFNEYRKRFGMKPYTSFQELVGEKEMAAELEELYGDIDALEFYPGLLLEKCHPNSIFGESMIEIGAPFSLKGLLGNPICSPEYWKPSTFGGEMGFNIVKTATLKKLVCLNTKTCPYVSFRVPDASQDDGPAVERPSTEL

COX-2 [2] = biological target: T2, COX-2 (Homo sapiens, UniProt P35354); assay: COX-2 whole-blood enzymatic immunoassay; format: cell-based
T2 sequence (P35354 18-604): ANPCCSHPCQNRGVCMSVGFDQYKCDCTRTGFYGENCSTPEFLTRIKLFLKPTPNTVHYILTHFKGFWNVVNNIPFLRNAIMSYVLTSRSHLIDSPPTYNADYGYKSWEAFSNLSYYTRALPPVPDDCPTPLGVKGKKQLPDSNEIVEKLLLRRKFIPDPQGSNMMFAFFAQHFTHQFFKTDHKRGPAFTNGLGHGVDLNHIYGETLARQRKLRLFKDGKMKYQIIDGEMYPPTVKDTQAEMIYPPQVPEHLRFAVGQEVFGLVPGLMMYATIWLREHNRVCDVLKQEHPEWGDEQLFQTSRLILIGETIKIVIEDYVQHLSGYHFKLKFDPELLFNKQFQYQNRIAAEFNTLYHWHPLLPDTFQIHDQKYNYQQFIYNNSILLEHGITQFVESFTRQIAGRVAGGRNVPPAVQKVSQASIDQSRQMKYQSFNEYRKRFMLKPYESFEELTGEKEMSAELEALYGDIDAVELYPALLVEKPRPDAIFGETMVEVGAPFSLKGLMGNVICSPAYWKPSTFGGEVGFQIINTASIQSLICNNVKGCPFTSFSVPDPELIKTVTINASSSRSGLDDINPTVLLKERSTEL

COX-1 [3] = biological target: COX-1 (Homo sapiens, UniProt P23219); assay: COX-1 whole-blood enzymatic immunoassay; format: cell-based
Chain of COX-1 (Homo sapiens, UniProt P23219) (P23219 24-599): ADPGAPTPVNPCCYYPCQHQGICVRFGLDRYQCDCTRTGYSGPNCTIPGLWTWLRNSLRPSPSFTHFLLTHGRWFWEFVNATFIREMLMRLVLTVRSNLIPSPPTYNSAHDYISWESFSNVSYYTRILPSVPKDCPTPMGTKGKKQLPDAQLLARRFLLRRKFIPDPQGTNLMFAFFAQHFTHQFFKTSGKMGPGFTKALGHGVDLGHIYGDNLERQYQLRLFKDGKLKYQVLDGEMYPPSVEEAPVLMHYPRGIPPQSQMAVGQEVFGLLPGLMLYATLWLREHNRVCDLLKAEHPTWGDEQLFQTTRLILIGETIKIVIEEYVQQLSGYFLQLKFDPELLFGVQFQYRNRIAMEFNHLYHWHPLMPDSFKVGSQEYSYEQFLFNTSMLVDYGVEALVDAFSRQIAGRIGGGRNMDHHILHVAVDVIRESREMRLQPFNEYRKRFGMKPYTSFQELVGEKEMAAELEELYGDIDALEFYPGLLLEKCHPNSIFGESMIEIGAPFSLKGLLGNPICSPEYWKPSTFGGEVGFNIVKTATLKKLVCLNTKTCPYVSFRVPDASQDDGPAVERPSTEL

COX-2 [4] = biological target: T3, COX-2 (Macaca mulatta, UniProt F7BWZ9); assay: COX-2 whole-blood enzymatic immunoassay; format: cell-based; conditions: read-out: IC50 COX-2 Monkey, mean ± SD (n = 3)
T3 sequence (F7BWZ9 18-604): T2 sequence (P35354 18-604) with H7Y, F49L, A101V, L150F, S163T, N191K, A208D, R211H, T363N, G570R

COX-1 [5] = biological target: T4, COX-1 (Rattus norvegicus, UniProt Q63921); assay: COX-1 whole-blood enzymatic immunoassay; format: cell-based
T4 sequence (Q63921 27-602): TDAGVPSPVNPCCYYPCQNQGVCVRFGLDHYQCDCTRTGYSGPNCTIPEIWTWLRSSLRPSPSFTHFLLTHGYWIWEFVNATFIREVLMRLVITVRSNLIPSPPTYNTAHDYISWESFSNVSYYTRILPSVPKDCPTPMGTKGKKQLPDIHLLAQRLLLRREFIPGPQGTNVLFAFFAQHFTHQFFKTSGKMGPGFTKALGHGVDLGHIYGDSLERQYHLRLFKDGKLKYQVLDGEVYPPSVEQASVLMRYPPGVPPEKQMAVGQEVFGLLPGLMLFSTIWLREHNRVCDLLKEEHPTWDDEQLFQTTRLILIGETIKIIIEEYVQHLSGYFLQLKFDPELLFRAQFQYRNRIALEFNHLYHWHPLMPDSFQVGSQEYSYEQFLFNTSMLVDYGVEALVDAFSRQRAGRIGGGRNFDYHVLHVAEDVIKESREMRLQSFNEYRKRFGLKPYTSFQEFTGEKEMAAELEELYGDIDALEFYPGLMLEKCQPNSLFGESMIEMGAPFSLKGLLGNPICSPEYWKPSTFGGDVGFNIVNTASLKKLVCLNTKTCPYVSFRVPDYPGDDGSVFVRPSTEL

human COX-1 = conditions: read-out: IC50 for human COX-1 (reported); human whole blood; cited from earlier work
[6] = read-out: IC50 COX-1 Human, human whole blood, mean ± SD (n = 3)

SMILES | IC50 (COX-1 [1]) [nM] | IC50 (COX-2 [2]; read-out: IC50 COX-2 Human, human whole blood, mean ± SD (n = 3)) [nM] | IC50 (COX-1 [3]; [6]) [nM] | IC50 (COX-2 [4]) [nM] | IC50 (COX-1 [5]) [nM] | IC50 (COX-2 [2]) [nM] | IC50 (COX-1 [3]) [nM] | IC50 (human COX-1) [nM]
COc1ccc(-n2nc(OC)nc2-c2ccccc2)cc1 [Inhibitor 31, 3-Methoxy-1-(4-methoxyphenyl)-5-phenyl-1H-1,2,4-triazole] | 3 ± 2.5 | > 1000 | 3 ± 0.06 | – | – | – | – | –
COc1ccc(-c2nc(OCC(F)(F)F)nn2-c2ccc(OC)cc2)cc1 [Inhibitor 20, 1,5-Bis(4-methoxyphenyl)-3-(2,2,2-trifluoroethoxy)-1H-1,2,4-triazole] | 1 ± 0.3 | – | – | > 1000 | 15 | – | – | –
COc1ccc(-c2nc(OC)nn2-c2ccc(OC)cc2)cc1 [Inhibitor 5] | 4.6 ± 1.3 | – | – | > 1000 | – | – | – | 4.9
COc1ccc(-c2nc([S+]([O-])CF)nn2-c2ccc(OC)cc2)cc1 (stereo not drawn) [Inhibitor 27, 3-(Fluoromethylsulfinyl)-1,5-bis(4-methoxyphenyl)-1H-1,2,4-triazole] | 5 ± 2 | – | – | 545 ± 102 | – | > 1000 | 3 ± 1.7 | –
COc1ccc(-c2nc(S(=O)(=O)CF)nn2-c2ccc(OC)cc2)cc1 [Inhibitor 28, 3-(Fluoromethylsulfonyl)-1,5-bis(4-methoxyphenyl)-1H-1,2,4-triazole] | 25 ± 3 | – | – | – | – | > 1000 | 3 ± 1.2 | –
C[C@H](C(=O)O)c1cccc(C(=O)c2ccccc2)c1 [Inhibitor 4, (S)-ketoprofen, reference compound] | 40 ± 17 | – | – | 400 ± 113 | – | – | – | –

Continued, in another order:

IC50 (COX-1 [1]) [nM] | IC50 (COX-2 [2]; read-out: IC50 COX-2 Human, human whole blood, mean ± SD (n = 3)) [nM] | IC50 (COX-1 [3]; [6]) [nM] | IC50 (COX-2 [4]) [nM] | IC50 (COX-1 [5]) [nM] | IC50 (COX-2 [2]) [nM] | IC50 (COX-1 [3]) [nM] | SMILES | IC50 (human COX-1) [nM]
10 ± 3 | – | – | – | – | > 1000 | 2 ± 0.1 | COc1ccc(-n2nc(C(F)(F)F)nc2-c2ccc(F)nc2)cc1 [Inhibitor 24, 2-Fluoro-5-(1-(4-methoxyphenyl)-3-(trifluoromethyl)-1H-1,2,4-triazol-5-yl)pyridine] | –
100 | – | – | – | – | 100 ± 25 | 1.7 ± 0.6 | COc1ccc(-n2nc(OCF)nc2-c2ccccc2)cc1 [Inhibitor 32, 3-(Fluoromethoxy)-1-(4-methoxyphenyl)-5-phenyl-1H-1,2,4-triazole] | –
> 1000 | – | > 1000 | 1 ± 0.5 | – | – | – | COc1cc(NCc2cccs2)nc(-c2ccc(S(C)(=O)=O)cc2)n1 [Inhibitor 34, [2-(4-Methanesulfonylphenyl)-6-methoxypyrimidin-4-yl]thiophen-2-ylme-thylamine, reference compound] | –
6.4 ± 0.8 | – | – | – | – | > 1000 | 5 ± 3.9 | COc1ccc(-c2nc(SCF)nn2-c2ccc(OC)cc2)cc1 [Inhibitor 26, 3-(Fluoromethylthio)-1,5-bis(4-methoxyphenyl)-1H-1,2,4-triazole] | –
